# Data as given in patent US20220152174A1, “Cancer Antigen Peptide” (National University Corporation Asahikawa Medical University, priority 2018, published 2022).
# Key:
# [1] = tested on: lung cancer cell line A549; experiment: DNA microarray gene expression after 5-AZA treatment; format: cell-based, human
# Method: Cells of lung cancer cell line A549 were treated with 5-AZA (10 μM) for 3 days and the RNAs were extracted. Gene expression levels were measured using DNA microarrays. The criteria for identifying the candidate genes were that the expression level was close to 0 in the non-treated cells and increased by 30 times or more in the 5-AZA-treated cells. Some candidate genes were found, including SYCP3 (untreated: 3.0, 5-AZA treated: 340.9, fold-change: […]), SPESP1 (untreated: 1.7, 5-AZA treated: 65.3, fold-change: […]), and DAZL1 (untreated: 2.8, 5-AZA treated: 341.3, fold-change: 123.6).
# [2] = tested on: SYCP3 gene expression in EBC1, Lu65, HT-29, SAS; experiment: SYCP3 gene expression by real-time PCR in 5-AZA-treated cancer cell lines; format: cell-based, human; settings: 5-AZA 10 μM, 3 days; all tested cell lines (EBC1, Lu65, HT-29, SAS)
# Method: (§1) Cells of cancer cell lines (lung cancer cell line EBC1, lung cancer cell line Lu65, colon cancer cell line HT-29, and oral squamous cell carcinoma cell line SAS) were cultured in the complete medium (RPMI 1640 medium (nacalai tesque 30264-56) with 100 U/mL penicillin (Meiji Seika) and […] streptomycin (Meiji Seika), added with 10% fetal bovine serum (biosera FB-1365/500) which had been […] at 56° C. for 30 minutes) containing 5-AZA (10 μM) at the density of 2×10^5 cells/well in 6-well plates (Falcon 353046) in an incubator (SANYO) set at 37° C., 5% CO2, and 95% humidity for 3 days. The same incubator was used for all cell cultures in the following tests. The cells were washed with 2 mL of a phosphate-buffered saline (PBS, KANTO CHEMICAL CO., INC. 73111). The RNAs were extracted with RNeasy Mini Kit (Qiagen 74106), and the cDNAs were synthesized by using PrimeScript 1st strand cDNA Synthesis Kit (Takara Bio 6110A), and the gene expression levels of GAPDH (Applied Biosystems Hs02786624_g1) and SYCP3 (Applied Biosystems Hs00538146_m1) were analyzed by real-time PCR using LightCycler480 (Roche). Each step was carried out in accordance with the description of the package inserts attached to each reagent.
# [3] = tested on: SPESP1 gene expression in SW839, 5637, LC2/Ad, EBC1, HT-29, Lu65, SAS; experiment: SPESP1 gene expression by real-time PCR in 5-AZA-treated cancer cell lines; format: cell-based, human; settings: all tested cell lines
# Method: Cells of cancer cell lines (lung cancer cell line EBC1, lung cancer cell line Lu65, colon cancer cell line HT-29, and oral squamous cell carcinoma cell line SAS) were cultured in the complete medium (RPMI 1640 medium (nacalai tesque 30264-56) with 100 U/mL penicillin (Meiji Seika) and 100 μg/L streptomycin (Meiji Seika), added with 10% fetal bovine serum (biosera FB-1365/500) which had been immobilized at 56° C. for 30 minutes) containing 5-AZA (10 μM) at the density of 2×10^5 cells/well in 6-well plates (Falcon 353046) in an incubator (SANYO) set at 37° C., 5% CO2, and 95% humidity for 3 days. […] The RNAs were extracted with RNeasy Mini Kit (Qiagen 74106), and the cDNAs were synthesized by using PrimeScript 1st strand cDNA Synthesis Kit (Takara Bio 6110A), and the gene expression levels of GAPDH (Applied Biosystems Hs02786624_g1) and SYCP3 (Applied Biosystems Hs00538146_m1) were analyzed by real-time PCR using LightCycler480 (Roche). […]
# Similarly, cells of renal cancer cell line SW839, bladder cancer cell line 5637, lung adenocarcinoma cell line LC2/Ad, lung cancer cell line EBC1, colon cancer cell line HT-29, lung cancer cell line Lu65, and oral squamous cell carcinoma cell line SAS were cultured in the presence of 5-AZA, and the gene expression levels of GAPDH and SPESP1 (Applied Biosystems Hs00377364_m1) were analyzed.
# [4] = tested on: mouse DAZL1 gene expression in WEHI-3; experiment: DAZL1 gene expression by real-time PCR in 5-AZA-treated WEHI-3; format: cell-based
# Method: as §1, with “Each step was carried out in accordance with the description of the package inserts attached to each reagent.” left out
# Similarly, cells of mouse leukemia cell line WEHI-3 (Balb/c) was cultured in the presence of 5-AZA, and the gene expression levels of mouse GAPDH (Applied Biosystems Mm99999915_g1) and mouse DAZL1 (Applied Biosystems Mm01273546_m1) were analyzed.
# [5] = tested on: SYCP3 protein in EBC1 and Lu65; experiment: SYCP3 protein by Western blotting; format: cell-based, human; settings: EBC1 and Lu65 treated with 5-AZA
# Method: The amount of SYCP3 protein in EBC1 and Lu65 treated with 5-AZA was analyzed by Western blotting. An anti-SYCP3 antibody (Mouse anti-SCP3, BD Bioscience 611230) diluted at 1:200 was used as the primary antibody. Upregulation of SYCP3 by the 5-AZA treatment was also observed at the protein level.
# [6] = tested on: DAZL1 protein in E0771 and C1498; experiment: DAZL1 protein by Western blotting in mouse cancer cell lines; format: cell-based; settings: 5-AZA 10 μM
# Method: Cells of mouse cancer cell lines (E0771:C57BL/6 mouse breast cancer cell line and C1498:C57BL/6 mouse acute myeloid leukemia cell line) were treated with 5-AZA (10 μM), and the amount of DAZL1 protein was analyzed by Western blotting.
# [7] = tested on: SYCP3 gene expression in HT-29 or WiDr tumor tissues; experiment: SYCP3 gene expression in tumor tissues of nude mice given 5-AZA; format: in vivo, mouse; settings: 5-AZA 1.6 μg/g i.p. Days 5, 10, 15, 20; tumors Day 25; vs PBS alone
# Method: To the control mice, 200 μL of PBS was intraperitoneally administered.
# [8] = tested on: SPESP1 gene expression in EBC1 or Lu65 tumor tissues; experiment: SPESP1 gene expression in tumor tissues of nude mice given 5-AZA; format: in vivo, mouse; settings: 5-AZA i.p.; tumors Day 25; vs PBS alone
# Method: Similarly, nude mice were intradermally injected with cells of lung cancer cell line EBC1 (5×10^5 cells) or Lu65 (5×10^5 cells), and 5-AZA or PBS (control) was intraperitoneally administered. The RNAs were extracted from the tumor tissues collected on Day 25, and the gene expression levels of SPESP1 and GAPDH were analyzed by real-time PCR.
# [9] = tested on: lung cancer cell line Lu65; experiment: Tumor growth in nude mice bearing Lu65; format: in vivo, mouse; settings: BALB/c nude mice, 5-AZA 150 nmol/g i.p. Days 7, 12, 17, 22, Th cells i.v. Days 13, 20, 27
# Method: BALB/c nude mice (10 to 14 weeks old, CHARLES RIVER LABORATORIES JAPAN) were intradermally injected with 3×10^6 cells of lung cancer cell line Lu65 using Myjector, and on Days 7, 12, 17, and 22, 200 μL of PBS containing 5-AZA (150 nmol/g of mouse body weight) was intraperitoneally administered using Myjector. To the control mice, 200 μL of PBS was intraperitoneally administered. On Days 13, 20, and 27, 200 μL of SYCP3-specific human Th cells (3 to 5×10^6 cells) were administered by tail vein administration. To the control mice, 200 μL of PBS was administered by tail vein administration. The tumor surface areas were measured over time.
# [10] = tested on: DR53-positive cancer cell lines (WiDr, Lu65, and Calu1); settings: cancer cells pretreated with 10 μM 5-AZA and 500 U/mL IFN-γ for 3 days; co-culture 24 hours
# Method: In order to study the reactivity of SYCP3-A peptide-specific CD4-positive T-cells toward cells of cancer cell lines, DR53-positive cancer cell lines (WiDr, Lu65, and Calu1) were used. The cancer cells were cultured in 6-well culture plates for 3 days using 2 mL of the complete medium containing 10 μM 5-AZA and 500 U/mL IFN-γ (Immunomax-γ for injection 50, Shionogi), which can induce expression of HLA class II molecules on the surfaces of cancer cells. The culture plates were thoroughly washed with PBS, 1 mL of 5 mM EDTA (ethylenediaminetetraacetic acid, nacalai tesque 14347-21) was added to suspend the cells, and the cells were recovered. In the same manner as in Test 8, 1×10^4 cells of each cell line and 5×10^4 CD4-positive T-cells were co-cultured in 96-well flat bottom culture plates using 200 μL of the culture medium for human cells. […] After 24 hours 100 μL of the culture supernatants were collected from each well, and the IFN-γ concentrations were determined using the ELISA kit.
# [11] = A549, 5-AZA 10 μM, 3 days, DNA microarray
# [12] = A549, 5-AZA treated vs untreated
smiles,measurement,setting,value
"Nc1ncn([C@H]2C[C@H](O)[C@@H](CO)O2)c(=O)n1 [5-AZA, 5-aza-2′-deoxycytidine]","DAZL1 gene expression level, 5-AZA treated",[1]; [11],341.3
same,"SPESP1 gene expression level, 5-AZA treated",[1]; [11],65.3
same,"SYCP3 gene expression level, 5-AZA treated",[1]; [11],340.9
same,DAZL1 fold-change,[1]; [12],123.6
same,SPESP1 fold-change,[1]; [12],38.8
same,SYCP3 fold-change,[1]; [12],112.3
same,SYCP3 gene expression level,[2],upregulated
same,SPESP1 gene expression level,[3],upregulated
same,DAZL1 gene expression level,[4],upregulated
same,amount of SYCP3 protein,[5],Upregulation
same,amount of DAZL1 protein,[6],upregulated
same,SYCP3 gene expression in tumor tissues,[7],upregulated
same,SPESP1 gene expression in tumor tissues,[8],upregulated
same,tumor growth (tumor surface area),[9],No effect
same,IFN-γ production of SYCP3-A-specific CD4-positive T-cells toward cancer cells,[10],increased the IFN-γ production
